Results taken from patent US8410144B2, “Substituted indolo-pyridinone compounds” (ArQule, Inc., priority 2009, dated 2013).

Tests used:
MDA-MB-231 = test: MTS assay, MDA-MB-231 cells; format: cell-based; details: Homo sapiens, 72 hours, read-out: MDA-MB-231, MTS cell kill % inhibition
Description: (§1) Cells were maintained at 37° C., 5% CO2 in DMEM media supplemented with 1% fetal bovine serum, penicillin/streptomycin and fungizone (Invitrogen). Cells were seeded into 96-well tissue culture plates at 3000 per well and cultured at 37° C. for 18 hours. Test compounds were dissolved and diluted to 300× in DMSO then diluted 1:40 in DMEM. Cells were incubated with test compounds for 72 hours followed by incubation with tetrazolium compound (3-(4,5-dimethylthiazol-2-yl)-5-(3-carboxymethoxyphenyl)-2-(4-sulfophenyl)-2H-tetrazolium, inner salt; MTS) and the electron coupling reagent, phenazine methosulfate (PMS) for 4 hours. […] The ability of compounds to inhibit cell growth in this assay is correlated with the reduction of dehydrogenase enzyme activity found in metabolically active cells. The measurement of the absorbance of the formazan was assessed using an ENVISION™ (Perkin Elmer) microplate reader at 492 nm. The calculated IC50 value is the concentration of the test compound that causes a 50% decrease in the absorbance.

NCI-H1299 = test: MTS assay, NCI-H1299 cells; format: cell-based; details: Homo sapiens, 72 hours, read-out: NCI-H1299, MTS cell kill % inhibition
Description: as §1

KATO III = test: MTS assay, KATO III cells; format: cell-based; details: Homo sapiens, 72 hours, read-out: KATO III, MTS cell kill % inhibition
Description: as §1

IGF-1R = IGF-1R (Homo sapiens, UniProt P08069); test: IGFR1 activity assay (ELISA); format: biochemical; details: read-out: IGF-1R, PCT INH (30 μM), ELISA
Description: The disclosed compounds were assayed for their ability to inhibit insulin-like growth factor receptor-1 (IGFR1). Nunc Maxisorb plates were coated with streptavidin by overnight incubation with 100 μL per well of 1 μg/ml Streptavidin in DPBS. Prior to the start of the experiment, the plates were washed with TBST (3×200 μL) and blocked for at least 1 hour by adding 150 μL of 5% BSA/TBST. The plates were washed with TBST (3×200 μL/well) and left to dry immediately before the capture step.
The disclosed test articles and controls (Staurosporine) were prepared using the following assay buffer at 3× desired final concentration (50 mM Tris-HCl, 0.02 mg/ml BSA, 10 mM MgCl2, 0.1 mM Na3VO4, 1 mM EGTA, 12.5 μM ATP, 0.01% NP-40, 1 mM DTT in 10% glycerol/water). 20 μL of the test compounds (or control), 20 μL IGF1R (0.33 ng/μL final concentration), and 20 μL of Pyk-2 (0.05 ng/μL final concentration) were rapidly added to the reaction plate. The plate was incubated at room temperature for one hour.
50 μL was transferred from the reaction plate to the streptavidin coated plate. The capture plate was incubated at room temperature for 30 minutes, then washed with TBST three times. 100 μL/well of Cell Signaling anti-phospho tyrosine was added to the capture plate at a dilution of 1:3000 in 2% BSA/TBST. The plate was incubated for one hour at room temperature then washed 6× with TBST. 100 μL/well of alkaline phosphatase tagged goat anti mouse antibody was added to the capture plate at a dilution of 1:4000 in 2% BSA/TBST. The plate was incubated for one hour at room temperature then washed with TBST six times.
The fluorescent readout is initiated by the addition of 100 μL/well of Attophos reagent (6 mg/10 mL). The reading is done on the Perkin Elmer Envision system.

DLD-1 = test: MTS assay, DLD-1 cells; format: cell-based; details: Homo sapiens, 72 hours, read-out: DLD-1, MTS cell kill % inhibition
Description: as §1

Sequence of IGF-1R (P08069 31-1367): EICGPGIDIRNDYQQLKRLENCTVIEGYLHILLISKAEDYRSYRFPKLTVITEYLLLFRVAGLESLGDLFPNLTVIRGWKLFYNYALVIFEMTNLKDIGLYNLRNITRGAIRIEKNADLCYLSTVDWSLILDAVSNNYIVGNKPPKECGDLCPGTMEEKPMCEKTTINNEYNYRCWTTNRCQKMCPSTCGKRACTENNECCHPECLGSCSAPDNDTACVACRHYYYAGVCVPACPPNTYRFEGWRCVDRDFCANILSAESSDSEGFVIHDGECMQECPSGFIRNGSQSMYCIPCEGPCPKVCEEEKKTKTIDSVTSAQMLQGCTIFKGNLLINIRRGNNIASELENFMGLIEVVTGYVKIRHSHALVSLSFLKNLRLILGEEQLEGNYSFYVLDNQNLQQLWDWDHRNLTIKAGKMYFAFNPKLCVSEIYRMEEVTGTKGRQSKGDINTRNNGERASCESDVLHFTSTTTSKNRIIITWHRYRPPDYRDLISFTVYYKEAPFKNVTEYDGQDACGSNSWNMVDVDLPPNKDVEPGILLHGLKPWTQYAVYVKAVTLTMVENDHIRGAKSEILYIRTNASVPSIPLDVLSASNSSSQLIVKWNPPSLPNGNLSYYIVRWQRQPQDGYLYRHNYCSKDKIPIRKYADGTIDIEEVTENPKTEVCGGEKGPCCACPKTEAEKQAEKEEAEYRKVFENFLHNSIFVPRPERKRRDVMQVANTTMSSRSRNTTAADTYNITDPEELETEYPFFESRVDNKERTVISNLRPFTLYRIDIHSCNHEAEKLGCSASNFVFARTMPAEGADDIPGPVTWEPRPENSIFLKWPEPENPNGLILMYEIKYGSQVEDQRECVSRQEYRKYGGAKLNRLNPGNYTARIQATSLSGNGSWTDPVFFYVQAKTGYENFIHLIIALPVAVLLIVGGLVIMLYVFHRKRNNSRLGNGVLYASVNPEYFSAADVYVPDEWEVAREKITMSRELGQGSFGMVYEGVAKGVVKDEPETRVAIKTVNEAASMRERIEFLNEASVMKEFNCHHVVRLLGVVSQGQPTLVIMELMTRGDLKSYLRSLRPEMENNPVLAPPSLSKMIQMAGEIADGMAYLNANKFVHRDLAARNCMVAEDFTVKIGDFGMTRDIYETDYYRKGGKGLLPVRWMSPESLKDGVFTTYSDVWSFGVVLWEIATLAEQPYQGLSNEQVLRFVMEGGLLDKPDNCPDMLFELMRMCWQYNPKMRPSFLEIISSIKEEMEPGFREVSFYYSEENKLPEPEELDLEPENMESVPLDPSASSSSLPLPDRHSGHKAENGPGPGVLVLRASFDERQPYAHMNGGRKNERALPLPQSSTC

| Compound | inhibition at 10 µM (MDA-MB-231) | inhibition at 10 µM (NCI-H1299) | inhibition at 10 µM (KATO III) | inhibition at 30 µM (IGF-1R) | melting point | inhibition at 10 µM (DLD-1) |
| --- | --- | --- | --- | --- | --- | --- |
| O=C(NCCCN1CCOCC1)c1ccc2[nH]c(-c3ccc[nH]c3=O)c(-c3ccccc3)c2c1 [Compound 1, N-(3-morpholin-4-ylpropyl)-2-(2-oxo-1,2-dihydropyridin-3-yl)-3-phenyl-1H-indole-5-carboxamide] | 80 to 100% | 80 to 100% | 80 to 100% | 80 to 100% | 238 to 244 °C | 80 to 100% |
| O=C(NC1CCNCC1)c1ccc2[nH]c(-c3ccc[nH]c3=O)c(-c3ccccc3)c2c1 [Compound 3, 2-(2-oxo-1,2-dihydropyridin-3-yl)-3-phenyl-N-piperidin-4-yl-1H-indole-5-carboxamide] | – | – | – | 50 to 79% | 233 to 236 °C | – |
| O=C(NCC1CCNCC1)c1ccc2[nH]c(-c3ccc[nH]c3=O)c(-c3ccccc3)c2c1 [Compound 4, 2-(2-oxo-1,2-dihydropyridin-3-yl)-3-phenyl-N-(piperidin-4-ylmethyl)-1H-indole-5-carboxamide] | – | – | – | 80 to 100% | 189 to 191 °C | – |
| O=C(NCCCn1ccnc1)c1ccc2[nH]c(-c3ccc[nH]c3=O)c(-c3ccccc3)c2c1 [Compound 6, N-[3-(1H-imidazol-1-yl)propyl]-2-(2-oxo-1,2-dihydropyridin-3-yl)-3-phenyl-1H-indole-5-carboxamide] | 50 to 79% | 80 to 100% | 80 to 100% | – | 153 to 157 °C | 50 to 79% |
| O=C(NCCCN1CCOCC1)c1cc2c3c(c1)c(-c1ccccc1)c(-c1ccc[nH]c1=O)n3CCC2 [Compound 7, N-(3-morpholin-4-ylpropyl)-2-(2-oxo-1,2-dihydropyridin-3-yl)-1-phenyl-5,6-dihydro-4H-pyrrolo[3,2,1-ij]quinoline-8-carboxamide] | < 50% | – | < 50% | – | 151 to 158 °C | < 50% |
| O=C(c1ccc2[nH]c(-c3ccc[nH]c3=O)c(-c3ccccc3)c2c1)N1CCc2ccccc2C1 [Compound 28, 3-[5-(3,4-dihydroisoquinolin-2(1H)-ylcarbonyl)-3-phenyl-1H-indol-2-yl]pyridin-2(1H)-one] | – | 80 to 100% | 80 to 100% | 80 to 100% | 171 to 177 °C | 80 to 100% |
| O=C(c1ccc2[nH]c(-c3ccc[nH]c3=O)c(-c3ccc(-c4ccccc4)cc3)c2c1)N1CCc2ccccc2C1 [Compound 47, 3-[3-biphenyl-4-yl-5-(3,4-dihydroisoquinolin-2(1H)-ylcarbonyl)-1H-indol-2-yl]pyridin-2(1H)-one] | < 50% | < 50% | 50 to 79% | – | 101 to 110 °C | 50 to 79% |
| COc1ccc(NC(=O)c2ccc3[nH]c(-c4ccc[nH]c4=O)c(-c4ccc(-c5ccccc5)cc4)c3c2)cc1 [Compound 48, 3-biphenyl-4-yl-N-(4-methoxyphenyl)-2-(2-oxo-1,2-dihydropyridin-3-yl)-1H-indole-5-carboxamide] | – | 50 to 79% | 50 to 79% | < 50% | 154 to 162 °C | 50 to 79% |
| O=C(NCCCN1CCOCC1)c1ccc2[nH]c(-c3ccc[nH]c3=O)cc2c1 [Compound 55, N-(3-morpholin-4-ylpropyl)-2-(2-oxo-1,2-dihydropyridin-3-yl)-1H-indole-5-carboxamide] | < 50% | – | < 50% | 80 to 100% | 130 to 132 °C | – |
| CC(C)c1cccc(-c2c(-c3ccc[nH]c3=O)[nH]c3ccc(C(=O)NCCCN4CCOCC4)cc23)c1 [Compound 71, 3-(3-isopropylphenyl)-N-(3-morpholin-4-ylpropyl)-2-(2-oxo-1,2-dihydropyridin-3-yl)-1H-indole-5-carboxamide] | 80 to 100% | 80 to 100% | 80 to 100% | – | 89 to 92 °C | 80 to 100% |
| O=C(NCCCN1CCOCC1)c1ccc2[nH]c(-c3ccc[nH]c3=O)c(-c3cc(Cl)cc(Cl)c3)c2c1 [Compound 75, 3-(3,5-dichlorophenyl)-N-(3-morpholin-4-ylpropyl)-2-(2-oxo-1,2-dihydropyridin-3-yl)-1H-indole-5-carboxamide] | 80 to 100% | 80 to 100% | 80 to 100% | – | 125 to 130 °C | 80 to 100% |
| O=C(NCCCN1CCOCC1)c1ccc2[nH]c(-c3ccc[nH]c3=O)c(-c3ccc(F)c(Cl)c3)c2c1 [Compound 76, 3-(3-chloro-4-fluorophenyl)-N-(3-morpholin-4-ylpropyl)-2-(2-oxo-1,2-dihydropyridin-3-yl)-1H-indole-5-carboxamide] | 80 to 100% | 80 to 100% | 80 to 100% | < 50% | – | 80 to 100% |
| O=C(NCCCN1CCOCC1)c1ccc2[nH]c(-c3ccc[nH]c3=O)c(-c3ccc(F)cc3F)c2c1 [Compound 77, 3-(2,4-difluorophenyl)-N-(3-morpholin-4-ylpropyl)-2-(2-oxo-1,2-dihydropyridin-3-yl)-1H-indole-5-carboxamide] | < 50% | < 50% | < 50% | 80 to 100% | – | < 50% |
| COc1ccc(-c2c(-c3ccc[nH]c3=O)[nH]c3ccc(C(=O)NCCCN4CCOCC4)cc23)cc1 [Compound 80, 3-(4-methoxyphenyl)-N-(3-morpholin-4-ylpropyl)-2-(2-oxo-1,2-dihydropyridin-3-yl)-1H-indole-5-carboxamide] | 50 to 79% | 50 to 79% | 80 to 100% | 80 to 100% | – | 50 to 79% |
| O=C(NCCCN1CCOCC1)c1ccc2[nH]c(-c3ccc[nH]c3=O)c(-c3cccc(F)c3)c2c1 [Compound 82, 3-(3-fluorophenyl)-N-(3-morpholin-4-ylpropyl)-2-(2-oxo-1,2-dihydropyridin-3-yl)-1H-indole-5-carboxamide] | < 50% | 80 to 100% | 80 to 100% | 80 to 100% | – | 50 to 79% |
| O=C(NCCCN1CCOCC1)c1ccc2[nH]c(-c3ccc[nH]c3=O)c(-c3ccc4ncccc4c3)c2c1 [Compound 83, N-(3-morpholin-4-ylpropyl)-2-(2-oxo-1,2-dihydropyridin-3-yl)-3-quinolin-6-yl-1H-indole-5-carboxamide] | 80 to 100% | 80 to 100% | 80 to 100% | 80 to 100% | – | 80 to 100% |
| O=c1[nH]cccc1-c1[nH]c2ccccc2c1C1CCN(Cc2ccccc2)CC1 [Compound 85, 3-[3-(1-benzylpiperidin-4-yl)-1H-indol-2-yl]pyridin-2(1H)-one] | < 50% | – | < 50% | – | 135 to 139 °C | < 50% |
| O=c1[nH]cccc1-c1[nH]c2ccccc2c1C1CCN(S(=O)(=O)c2ccccc2)CC1 [Compound 86, 3-{3-[1-(phenylsulfonyl)piperidin-4-yl]-1H-indol-2-yl}pyridin-2(1H)-one] | < 50% | < 50% | < 50% | – | 215 to 217 °C | < 50% |
| O=C(c1ccccc1)N1CCC(c2c(-c3ccc[nH]c3=O)[nH]c3ccccc23)CC1 [Compound 87, 3-[3-(1-benzoylpiperidin-4-yl)-1H-indol-2-yl]pyridin-2(1H)-one] | 80 to 100% | < 50% | < 50% | – | 294 to 296 °C | < 50% |
